Target: PI3Kβ (Homo sapiens (Human), UniProt P42338)
Experiment: PI3K isoform TR-FRET enzymatic assay (PI3Kβ)
Format: biochemical
Settings: 2× Km ATP, 30 minutes at 25° C.
Summary of the method: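 Heterodimeric recombinant PI3Kβ was incubated with compound 30 minutes at 25° C. Product was detected by TR-FRET competition with 10 nM labeled PIP3 for 35 nM Eu-GRP-1 PH domain after EDTA stop. Data were normalized to 1 μM wortmannin and DMSO, and IC50 was taken from a four-parameter fit.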

PI3Kβ, sequence (P42338 whole entry, canonical isoform): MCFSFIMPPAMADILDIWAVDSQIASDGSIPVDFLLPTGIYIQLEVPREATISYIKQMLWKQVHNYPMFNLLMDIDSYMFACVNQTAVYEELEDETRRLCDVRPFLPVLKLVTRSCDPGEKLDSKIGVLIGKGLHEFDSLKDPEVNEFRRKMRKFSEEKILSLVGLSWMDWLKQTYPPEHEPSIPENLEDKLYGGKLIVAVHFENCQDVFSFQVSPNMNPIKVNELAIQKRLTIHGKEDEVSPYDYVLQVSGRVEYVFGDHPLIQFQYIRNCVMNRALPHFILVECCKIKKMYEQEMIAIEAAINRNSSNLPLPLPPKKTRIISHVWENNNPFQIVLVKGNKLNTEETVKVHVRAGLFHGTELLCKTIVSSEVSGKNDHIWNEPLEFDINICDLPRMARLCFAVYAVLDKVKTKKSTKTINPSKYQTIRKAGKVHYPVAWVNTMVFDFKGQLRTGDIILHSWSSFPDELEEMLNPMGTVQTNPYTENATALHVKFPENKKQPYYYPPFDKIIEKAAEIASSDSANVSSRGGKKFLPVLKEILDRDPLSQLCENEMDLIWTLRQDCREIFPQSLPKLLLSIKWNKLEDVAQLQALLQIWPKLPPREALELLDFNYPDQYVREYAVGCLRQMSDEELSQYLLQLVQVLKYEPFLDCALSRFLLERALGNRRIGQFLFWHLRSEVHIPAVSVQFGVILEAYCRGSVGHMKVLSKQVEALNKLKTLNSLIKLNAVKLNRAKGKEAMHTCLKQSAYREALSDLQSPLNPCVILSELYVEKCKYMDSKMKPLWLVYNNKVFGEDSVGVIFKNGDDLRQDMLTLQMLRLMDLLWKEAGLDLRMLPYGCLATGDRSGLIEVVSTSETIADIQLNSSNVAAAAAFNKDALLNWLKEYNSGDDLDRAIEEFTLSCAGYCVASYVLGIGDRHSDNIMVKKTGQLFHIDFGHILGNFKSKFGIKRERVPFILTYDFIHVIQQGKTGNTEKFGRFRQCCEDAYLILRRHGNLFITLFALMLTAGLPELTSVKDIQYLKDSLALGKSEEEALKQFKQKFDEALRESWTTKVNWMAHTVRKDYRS
PI3Kβ, sequence (P27986 whole entry partner, canonical isoform): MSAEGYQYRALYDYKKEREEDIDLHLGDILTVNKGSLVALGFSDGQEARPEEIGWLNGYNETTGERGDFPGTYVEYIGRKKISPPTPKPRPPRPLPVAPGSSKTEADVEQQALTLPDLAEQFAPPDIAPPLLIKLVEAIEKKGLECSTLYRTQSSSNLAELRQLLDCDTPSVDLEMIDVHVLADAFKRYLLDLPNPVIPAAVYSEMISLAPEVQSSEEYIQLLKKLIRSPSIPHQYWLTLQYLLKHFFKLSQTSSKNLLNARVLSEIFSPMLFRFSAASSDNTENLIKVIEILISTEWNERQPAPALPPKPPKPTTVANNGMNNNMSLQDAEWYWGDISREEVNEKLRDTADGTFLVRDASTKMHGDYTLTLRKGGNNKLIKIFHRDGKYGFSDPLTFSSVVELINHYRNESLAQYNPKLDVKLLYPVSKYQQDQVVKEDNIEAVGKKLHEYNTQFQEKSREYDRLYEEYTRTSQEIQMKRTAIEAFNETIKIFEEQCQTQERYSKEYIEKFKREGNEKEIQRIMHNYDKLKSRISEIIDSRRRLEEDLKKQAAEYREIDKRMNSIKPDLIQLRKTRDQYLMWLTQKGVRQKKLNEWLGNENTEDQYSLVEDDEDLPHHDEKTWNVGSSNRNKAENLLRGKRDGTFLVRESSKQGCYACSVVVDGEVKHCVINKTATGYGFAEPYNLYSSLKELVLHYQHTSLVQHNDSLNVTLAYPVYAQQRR

Structure (SMILES)	IC50 [µM]
CCCc1nc2c(-c3cnc(Cl)[nH]3)cc(N3CCOCC3)cc2n1-c1ccnc2c(Cl)cccc12 [Example 281, 4-[7-(2-chloro-1H-imidazol-5-yl)-3-(8-chloroquinolin-4-yl)-2-propylbenzimidazol-5-yl]morpholine]	0.015
Fc1ccc2c(-n3c(CC4CC4)nc4c(-c5nnc[nH]5)cc(N5CCOCC5)cc43)ccnc2c1Cl [Example 31, 4-(1-(8-chloro-7-fluoroquinolin-4-yl)-2-(cyclopropylmethyl)-4-(4H-1,2,4-triazol-3-yl)-1H-benzo[d]imidazol-6-yl)morpholine]	0.009
Fc1ccc(F)c2c(-n3cnc4c(-c5cnc(C(F)(F)F)[nH]5)cc(N5CCOCC5)cc43)ccnc12 [Example 390, 4-(1-(5,8-difluoroquinolin-4-yl)-4-(2-(trifluoromethyl)-1H-imidazol-5-yl)-1H-benzo[d]imidazol-6-yl)morpholine]	0.84
Cc1nc2c(-c3nnc[nH]3)cc(N3CCOCC3)cc2n1-c1ccnc2cccc(C(F)F)c12 [Example 85, 4-[3-[5-(difluoromethyl)quinolin-4-yl]-2-methyl-7-(4H-1,2,4-triazol-3-yl)benzimidazol-5-yl]morpholine]	0.28
Cc1nc2c(-c3ccccc3)cc(N3CCOCC3)cc2n1-c1ccnc2c(-c3ccccc3)cccc12 [Example 312, 4-(2-methyl-4-phenyl-1-(8-phenylquinolin-4-yl)-1H-benzo[d]imidazol-6-yl)morpholine]	0.967
Cc1nc2c(-c3nnc[nH]3)cc(N3CCOCC3)cc2n1-c1ccnc2c(F)ccc(Cl)c12 [Example 126, 4-[3-(5-chloro-8-fluoroquinolin-4-yl)-2-methyl-7-(4H-1,2,4-triazol-3-yl)benzimidazol-5-yl]morpholine]	0.021
Clc1cccc2c(-n3c(CC4CC4)nc4c(-c5ncco5)cc(N5CCOCC5)cc43)ccnc12 [Example 220, 4-[3-(8-chloroquinolin-4-yl)-2-(cyclopropylmethyl)-7-(1,3-oxazol-2-yl)benzimidazol-5-yl]morpholine]	0.007
Cc1nc2c(-c3cscn3)cc(N3CCOCC3)cc2n1-c1ccnc2ccccc12 [Example 265, 4-[2-methyl-3-quinolin-4-yl-7-(1,3-thiazol-4-yl)benzimidazol-5-yl]morpholine]	0.46
Cc1nc2c(-c3nnc[nH]3)cc(N3CCOCC3)cc2n1-c1cc(C(F)(F)F)nc2c(Cl)cccc12 [Example 58, 4-[3-[8-chloro-2-(trifluoromethyl)quinolin-4-yl]-2-methyl-7-(4H-1,2,4-triazol-3-yl)benzimidazol-5-yl]morpholine]	0.062
Fc1ccc2c(-n3c(C4CC4)nc4c(-c5nnc(Cl)[nH]5)cc(N5CCOCC5)cc43)ccnc2c1Cl [Example 173, 4-(4-(5-chloro-4H-1,2,4-triazol-3-yl)-1-(8-chloro-7-fluoroquinolin-4-yl)-2-cyclopropyl-1H-benzo[d]imidazol-6-yl)morpholine]	0.14
Clc1cccc2c(-n3c(-c4cnco4)nc4c(-c5nnc[nH]5)cc(N5CCOCC5)cc43)ccnc12 [Example 112, 4-[3-(8-chloroquinolin-4-yl)-2-(1,3-oxazol-5-yl)-7-(4H-1,2,4-triazol-3-yl)benzimidazol-5-yl]morpholine]	0.017
Cc1nnc(-c2cc(N3CCOCC3)cc3c2ncn3-c2cc(-c3cc[nH]n3)nc3ccccc23)[nH]1 [Example 382, 4-(1-(2-(1H-pyrazol-3-yl)quinolin-4-yl)-4-(5-methyl-4H-1,2,4-triazol-3-yl)-1H-benzo[d]imidazol-6-yl)morpholine]	0.13
CCCc1nc2c(-c3nnc[nH]3)cc(N3CCOCC3)cc2n1-c1ccnc2c(F)c(F)ccc12 [Example 49, 4-(1-(7,8-difluoroquinolin-4-yl)-2-propyl-4-(4H-1,2,4-triazol-3-yl)-1H-benzo[d]imidazol-6-yl)morpholine]	0.018
CCc1nc2c(-c3nnc(C)[nH]3)cc(N3CCOCC3)cc2n1-c1c(Cl)cnc2c(Cl)cccc12 (atropisomer, axis not shown) [Compound 349, 4-[3-(3,8-dichloroquinolin-4-yl)-2-ethyl-7-(5-methyl-4H-1,2,4-triazol-3-yl)benzimidazol-5-yl]morpholine]	0.439
Fc1cccc2c(-n3c(CC4CC4)nc4c(-c5cnc(Cl)[nH]5)cc(N5CCOCC5)cc43)ccnc12 [Example 304, 4-[7-(2-chloro-1H-imidazol-5-yl)-2-(cyclopropylmethyl)-3-(8-fluoroquinolin-4-yl)benzimidazol-5-yl]morpholine]	0.081
CCCc1nc2c(-c3ncco3)cc(N3CCOCC3)cc2n1-c1ccnc2c(F)cccc12 [Example 223, 4-[3-(8-fluoroquinolin4-yl)-7-(1,3-oxazol-2-yl)-2-propylbenzimidazol-5-yl]morpholine]	0.009
Fc1ccc(F)c2c(-n3cnc4c(-c5cnc[nH]5)cc(N5CCOCC5)cc43)ccnc12 [Example 336, 4-[3-(5,8-difluoroquinolin-4-yl)-7-(1H-imidazol-5-yl)benzimidazol-5-yl]morpholine]	0.005

Structure (SMILES)	IC50 [µM]
CCc1nc2c(-c3cnc[nH]3)cc(N3CCOCC3)cc2n1-c1ccnc2c(F)cccc12 [Example 209, 4-[2-ethyl-3-(8-fluoroquinolin-4-yl)-7-(1H-imidazol-5-yl)benzimidazol-5-yl]morpholine]	0.015
Clc1cccc2c(-n3c(C4CNC4)nc4c(-c5nnc[nH]5)cc(N5CCOCC5)cc43)ccnc12 [Example 132, 4-[2-(azetidin-3-yl)-3-(8-chloroquinolin-4-yl)-7-(4H-1,2,4-triazol-3-yl)benzimidazol-5-yl]morpholine]	0.38
CCCc1nc2c(-c3nnc[nH]3)cc(N3CCOCC3)cc2n1-c1ccnc2c(F)cc(F)cc12 [Example 146, 4-[3-(6,8-difluoroquinolin-4-yl)-2-propyl-7-(4H-1,2,4-triazol-3-yl)benzimidazol-5-yl]morpholine]	0.101
Cc1nc2c(-c3ncco3)cc(N3CCOCC3)cc2n1-c1ccnc2c(F)ccc(F)c12 [Example 229, 4-[3-(5,8-difluoroquinolin-4-yl)-2-methyl-7-(1,3-oxazol-2-yl)benzimidazol-5-yl]morpholine]	0.005
CCc1nc2c(-c3nc(C)cs3)cc(N3CCOCC3)cc2n1-c1ccnc2c(F)cccc12 [Example 232, 4-[2-ethyl-3-(8-fluoroquinolin-4-yl)-7-(4-methyl-1,3-thiazol-2-yl)benzimidazol-5-yl]morpholine]	0.056
CCCc1nc2c(-c3nnc(C)[nH]3)cc(N3CCOCC3)cc2n1-c1ccnc2c(F)ccc(F)c12 [Example 3, 4-(1-(5,8-difluoroquinolin-4-yl)-4-(5-methyl-4H-1,2,4-triazol-3-yl)-2-propyl-1H-benzo[d]imidazol-6-yl)morpholine]	0.024
Cc1nc2c(-c3nnc(Cl)[nH]3)cc(N3CCOCC3)cc2n1-c1ccnc2c(Cl)cccc12 [Example 178, 4-[3-(8-chloroquinolin-4-yl)-7-(5-chloro-4H-1,2,4-triazol-3-yl)-2-methylbenzimidazol-5-yl]morpholine]	0.012
Cc1nc2c(-c3nnc[nH]3)cc(N3CCOCC3)cc2n1-c1ccnc2c(F)c(F)ccc12 (atropisomer, axis not shown) [Compound 353, 4-[3-(7,8-difluoroquinolin-4-yl)-2-methyl-7-(4H-1,2,4-triazol-3-yl)benzimidazol-5-yl]morpholine]	0.27
CCc1nc2c(-c3nnc[nH]3)cc(N3CCOCC3)cc2n1-c1c(C)cnc2c(C#N)cccc12 (atropisomer, axis not shown) [Compound 364, 4-(2-ethyl-6-morpholino-4-(4H-1,2,4-triazol-3-yl)-1H-benzo[d]imidazol-1-yl)-3-methylquinoline-8-carbonitrile]	0.025
Cc1cccc2nccc(-n3c(C)nc4c(-c5nnc[nH]5)cc(N5CCOCC5)cc43)c12 [Example 83, 4-[2-methyl-3-(5-methylquinolin-4-yl)-7-(4H-1,2,4-triazol-3-yl)benzimidazol-5-yl]morpholine]	0.019
CCc1nc2c(-c3ncco3)cc(N3CCOCC3)cc2n1-c1ccnc2c(Cl)cccc12 [Example 226, 4-[3-(8-chloroquinolin4-yl)-2-ethyl-7-(1,3-oxazol-2-yl)benzimidazol-5-yl]morpholine]	0.005
Cc1nc2c(-c3cc[nH]c3)cc(N3CCOCC3)cc2n1-c1ccnc2c(Cl)cccc12 [Example 263, 4-[3-(8-chloroquinolin-4-yl)-2-methyl-7-(1H-pyrrol-3-yl)benzimidazol-5-yl]morpholine]	0.013
Cc1cc(-n2c(C)nc3c(-c4cnc[nH]4)cc(N4CCOCC4)cc32)c2c(Cl)ccc(Cl)c2n1 [Example 333, 4-[3-(5,8-dichloro-2-methylquinolin-4-yl)-7-(1H-imidazol-5-yl)-2-methylbenzimidazol-5-yl]morpholine]	0.009
Cc1csc(-c2cc(N3CCOCC3)cc3c2nc(C2CC2)n3-c2ccnc3c(Cl)ccc(F)c23)n1 [Example 243, 4-[3-(8-chloro-5-fluoroquinolin-4-yl)-2-cyclopropyl-7-(4-methyl-1,3-thiazol-2-yl)benzimidazol-5-yl]morpholine]	0.026
FC1(c2nc3c(-c4nnc[nH]4)cc(N4CCOCC4)cc3n2-c2ccnc3c(Cl)cccc23)CC1 [Example 54, 4-(1-(8-chloroquinolin-4-yl)-2-(1-fluorocyclopropyl)-4-(4H-1,2,4-triazol-3-yl)-1H-benzo[d]imidazol-6-yl)morpholine]	0.014
Cc1nc2c(-c3nnc[nH]3)c(F)c(N3CCOCC3)cc2n1-c1ccnc2c(Cl)cccc12 [Example 86, 4-[3-(8-chloroquinolin-4-yl)-6-fluoro-2-methyl-7-(4H-1,2,4-triazol-3-yl)benzimidazol-5-yl]morpholine]	0.016
Fc1cccc2c(-n3c(C4CC4)nc4c(-c5ncco5)cc(N5CCOCC5)cc43)ccnc12 [Example 214, 4-[2-cyclopropyl-3-(8-fluoroquinolin-4-yl)-7-(1,3-oxazol-2-yl)benzimidazol-5-yl]morpholine]	0.056
